{
  "source": "patent US8877241B2",
  "about": "(Egalet Ltd., priority 2003, dated 2014)",
  "origin": "cited, not measured here",
  "details": "single dose of 10 mg oral morphine, plain tablet composition",
  "data": [
    {"compound": "CN1CC[C@]23c4c5ccc(O)c4O[C@H]2[C@@H](O)C=C[C@H]3[C@H]1C5", "note": "[morphine]", "values": [
      {"measurement": "average duration of action", "value": "4 to 5", "unit": "h"}
    ]}
  ]
}
